Test results: US20090076278A1, “METHINE DYES AND USES OF THE SAME” (KABUSHIKI KAISHA HAYASHIBARA SEIBUTSU KAGAKU KENKYUJO, priority 2006, published 2009)

Tests used:
Format in all cases: physicochemical
[1] = DSC analysis for decomposition point (thermal property); conditions: DSC analysis of crystal
From the text: As described above, the methine dyes of the present invention have main absorption maxima in the region at wavelengths of longer than 300 nm, usually, at wavelengths of around 350 to 850 nm, and have distinctly high molecular absorption coefficients (may be abbreviated as “ε”) of 1.0×10^5 or more, usually, 1.5×10^5 or more at their absorption maxima, and efficiently absorb the light in such wavelength region. […] As is well known, it is said that the decomposition point and the glass transition point of an organic compound are recognized as important indexes of their thermal stability, i.e., compounds with higher decomposition points and glass transition points tend to have a higher thermal stability. Accordingly, the methine dyes of the present invention can be quite advantageously used as light-absorption materials which absorb the light in the ultra violet and the infrared regions to shield it, or use the light energy of the above regions in various fields of, for example, information recordings, solar energy generations, electric equipments, electric communications apparatuses, optical equipments, clothes, building/bedding/decorating products, health goods, and agricultural materials. The decomposition points of the methine dyes can be determined by conventional […] (abbreviated as “DSC” herein after).
Conventional measurement of the dye for visible absorption spectrum in methanol solution as an absorption property gave a main absorption maximum at a wavelength of about 544 nm (E=1.94×10^5). ^1H-NMR Analysis of the methine dye in dimethyl sulfoxide-d^6 solution gave a chemical shift δ (ppm, TMS) at peaks of 0.15 to 0.32 (2H, m, —CH2—), 0.65 to 0.82 (2H, m, —CH2—), (6H, t, CH3—), 1.23 (6H, t, CH3—), 1.62 (6H, s, CH3—), 1.80 (6H, s, CH3—), 1.87 (6H, s, CH3—), 1.85 to 2.07 (2H, m, —CH2—), 2.70 to 2.90 (2H, m, —CH2—), 3.95 to 4.20 (8H, m, —CH2—), 6.39 (2H, d, —CH═), 6.48 (2H, d, —CH═), 7.51 (2H, t, ArH), 7.59 (2H, t, ArH), 7.61 (2H, d, ArH), 7.66 (2H, t, ArH), 7.75 (2H, d, ArH), 7.78 (2H, t, ArH), 8.01 (4H, t, ArH), 8.13 (4H, t, ArH), 8.16 (2H, d, ArH), 8.24 (2H, d, ArH), and 8.32 (2H, t, —CH═).

[2] = Solubility of methine dye in TFP; conditions: for Solubility: dissolved in 100 ml of TFP at 20° C.; for solubility in TFP (in words): 1.6% by weight in TFP for forming a recording layer
Method: For the methine dyes of the present invention as listed in Table 1, they were respectively dissolved in 100 ml of TFP at 20° C. and, as solubility, measured for the mass of each methine dye. In parallel, conventionally known related compounds represented by Chemical Formulae 65 to 67 were similarly measured for their solubilities.

[3] = Light tolerance of dye thin membrane under xenon lamp exposure; conditions: thin membrane on glass substrate; 7.5 kw xenon lamp, two hours, 180 W/m^2; transmittance at absorption maximum wavelength (about 550 nm)
Method: Any one of the methine dyes represented by Chemical Formulae 1 to 3, 8 and 36, obtained by the methods in Examples 4 to 8, was weighed by 15 mg, added to three milliliters of TFP, and dissolved by energizing with ultra sound for five minutes at ambient temperature. The resulting solution was dropped to homogeneity over either side of a polished glass substrate (5 cm×5 cm) by spin coating, and the substrate was rotated at 1,000 rμm for one minute to homogeneously apply the solution over the substrate, and dried by successively blowing hot air and cool air thereunto in this order to form a thin membrane of any one of the methine dyes of the present invention over the glass substrate.
The transmittance (T0) of the methine dyes in the form of a thin layer was measured at their absorption maximum wavelengths (about 550 nm), and a 7.5 kw xenon lamp was installed apart from the glass substrate at a prescribed distance to expose the glass substrate for two hours with an irradiation energy of 180 W/m^2 when measured on the surface of the substrate while blowing cool air thereunto. Thereafter, the transmittance (T) at each of their absorption maximum wavelengths was instantly remeasured, and the residual percentage (%) of each dye was calculated by substituting the measured transmittances T and To Formula 1. In parallel, the thin membranes formed with the related compounds represented by Chemical Formulae 65 to 68 were similarly treated as in the above and respectively measured for their transmittances at their absorption maximum wavelengths.

Row | SMILES | decomposition point [1] | Solubility [2] [% by weight] | Residual percentage (%) of dye [3] [%] | solubility in TFP (in words) [2]
1 | C[N+]1=C(C=CNc2ccccc2)C(C)(CCCCC2(C)C(C=CNc3ccccc3)=[N+](C)c3ccc4ccccc4c32)c2c1ccc1ccccc21.[O-][Cl+3]([O-])([O-])[O-].[O-][Cl+3]([O-])([O-])[O-] (stereo not shown) [Chemical Formula 24] | about 300 °C | – | – | –
2 | CCN1C(=CC=CC2=[N+](CC)c3ccc4ccccc4c3C2(C)CCCCCCC2(C)C(C=CC=C3N(CC)c4ccc5ccccc5c4C3(C)C)=[N+](CC)c3ccc4ccccc4c32)C(C)(C)c2c1ccc1ccccc21.F[P-](F)(F)(F)(F)F.F[P-](F)(F)(F)(F)F (stereo not shown) [Chemical Formula 8] | – | 2.58 | 75 | –
3 | CN1C(=CC2=[N+](C)c3ccc4ccccc4c3C2(C)CCCCC2(C)C(C=C3Oc4ccccc4N3C)=[N+](C)c3ccc4ccccc4c32)Oc2ccccc21.[O-][Cl+3]([O-])([O-])[O-].[O-][Cl+3]([O-])([O-])[O-] (stereo not shown) [Chemical Formula 21] | about 285 °C | – | – | –
4 | CCN1C(=CC=CC2=[N+](CC)c3ccc4ccccc4c3C2(C)Cc2ccccc2)C(C)(Cc2ccccc2)c2c1ccc1ccccc21 (stereo not shown) [Chemical Formula 68, reference compound] | – | – | 50 | –
5 | CCN1C(=CC=CC2=[N+](CC)c3ccc4ccccc4c3C2(C)C)C(C)(C)c2c1ccc1ccccc21 [Chemical Formula 65, reference compound] | – | 1.10 | 73 | –
6 | CCN1C(=CC=CC2=[N+](CCCCCC[N+]3=C(C=CC=C4N(CC)c5ccc6ccccc6c5C4(C)C)C(C)(C)c4c3ccc3ccccc43)c3ccc4ccccc4c3C2(C)C)C(C)(C)c2c1ccc1ccccc21 [Chemical Formula 67] | – | 0.44 | 60 | relatively low solubility in TFP
7 | CCN1C(=CC=CC2=[N+](C)c3ccc4ccccc4c3C2(C)Cc2ccc(CC3(C)C(C=CC=C4N(CC)c5ccc6ccccc6c5C4(C)Cc4ccccc4)=[N+](C)c4ccc5ccccc5c43)cc2)C(C)(Cc2ccccc2)c2c1ccc1ccccc21.F[P-](F)(F)(F)(F)F.F[P-](F)(F)(F)(F)F (stereo not shown) [Chemical Formula 36] | about 220 °C | 1.66 | 64 | –
8 | CCN1C(=CC=CC2=[N+](CC)c3ccc4ccccc4c3C2(C)CCCCC2(C)C(C=CC=C3N(CC)c4ccc5ccccc5c4C34CCCCC4)=[N+](CC)c3ccc4ccccc4c32)C2(CCCCC2)c2c1ccc1ccccc21.F[P-](F)(F)(F)(F)F.F[P-](F)(F)(F)(F)F (stereo not shown) [Chemical Formula 3] | about 235 °C | 2.47 | 64 | –
9 | CCN1C(=CC=CC2=[N+](CC)c3ccc4ccccc4c3C23CCCCC3)C(C)(C)c2c1ccc1ccccc21 [Chemical Formula 66] | – | 0.82 | 58 | relatively low solubility in TFP
10 | CCN1C(=CC=CC2=[N+](CC)c3ccc4ccccc4c3C2(C)CCCCC2(C)C(C=CC=C3N(CC)c4ccc5ccccc5c4C3(C)Cc3ccccc3)=[N+](CC)c3ccc4ccccc4c32)C(C)(Cc2ccccc2)c2c1ccc1ccccc21.F[P-](F)(F)(F)(F)F.F[P-](F)(F)(F)(F)F (stereo not shown) [Chemical Formula 2] | about 211 °C | 2.68 | 66 | –
